Measured values from the supplement of paper PMC11451515.

Tested on: P12-Ichikawa
Assay: cell viability relative to DMSO control; higher = less cytotoxic
Settings: 48 h
Outline: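 Leukemia cells (NOMO1 or SEM, 500 cells/well; P12-Ichikawa, 1000 cells/well) were seeded in 5 μl in 1536-well plates after at least four passages of adaptation to each medium. They received library compounds in DMSO by pin dosing, 11 threefold points from 47 μM to 0.79 nM. Luminescence with CellTiter-Glo One was read after 48 h at 37°C. Viability is stated per plate relative to DMSO wells, with cell-free wells as background.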

[1] = HPLM + 10% dialyzed FBS, 0.000781 µM
[2] = HPLM + 10% dialyzed FBS, 0.00234 µM
[3] = HPLM + 10% dialyzed FBS, 0.00702 µM
[4] = HPLM + 10% dialyzed FBS, 0.0211 µM
[5] = HPLM + 10% dialyzed FBS, 0.0632 µM
[6] = HPLM + 10% dialyzed FBS, 0.19 µM
[7] = HPLM + 10% dialyzed FBS, 0.569 µM
[8] = HPLM + 10% dialyzed FBS, 1.71 µM
[9] = HPLM + 10% dialyzed FBS, 5.12 µM
[10] = HPLM + 10% dialyzed FBS, 15.4 µM
[11] = HPLM + 10% dialyzed FBS, 46.1 µM
[12] = RPMI 5 mM glucose + 10% FBS, 0.000781 µM
[13] = RPMI 5 mM glucose + 10% FBS, 0.00234 µM
[14] = RPMI 5 mM glucose + 10% FBS, 0.00702 µM
[15] = RPMI 5 mM glucose + 10% FBS, 0.0211 µM
[16] = RPMI 5 mM glucose + 10% FBS, 0.0632 µM
[17] = RPMI 5 mM glucose + 10% FBS, 0.19 µM
[18] = RPMI 5 mM glucose + 10% FBS, 0.569 µM
[19] = RPMI 5 mM glucose + 10% FBS, 1.71 µM
[20] = RPMI 5 mM glucose + 10% FBS, 5.12 µM
[21] = RPMI 5 mM glucose + 10% FBS, 15.4 µM
[22] = RPMI 5 mM glucose + 10% FBS, 46.1 µM
[23] = RPMI 5 mM glucose + 10% dialyzed FBS, 0.000781 µM
[24] = RPMI 5 mM glucose + 10% dialyzed FBS, 0.00234 µM
[25] = RPMI 5 mM glucose + 10% dialyzed FBS, 0.00702 µM
[26] = RPMI 5 mM glucose + 10% dialyzed FBS, 0.0211 µM
[27] = RPMI 5 mM glucose + 10% dialyzed FBS, 0.0632 µM
[28] = RPMI 5 mM glucose + 10% dialyzed FBS, 0.19 µM
[29] = RPMI 5 mM glucose + 10% dialyzed FBS, 0.569 µM
[30] = RPMI 5 mM glucose + 10% dialyzed FBS, 1.71 µM
[31] = RPMI 5 mM glucose + 10% dialyzed FBS, 5.12 µM
[32] = RPMI 5 mM glucose + 10% dialyzed FBS, 15.4 µM
[33] = RPMI 5 mM glucose + 10% dialyzed FBS, 46.1 µM

Row | SMILES | cell viability [1] [%] | cell viability [2] [%] | cell viability [3] [%] | cell viability [4] [%] | cell viability [5] [%] | cell viability [6] [%] | cell viability [7] [%] | cell viability [8] [%] | cell viability [9] [%] | cell viability [10] [%] | cell viability [11] [%] | cell viability [12] [%] | cell viability [13] [%] | cell viability [14] [%] | cell viability [15] [%] | cell viability [16] [%] | cell viability [17] [%] | cell viability [18] [%] | cell viability [19] [%] | cell viability [20] [%] | cell viability [21] [%] | cell viability [22] [%] | cell viability [23] [%] | cell viability [24] [%] | cell viability [25] [%] | cell viability [26] [%] | cell viability [27] [%] | cell viability [28] [%] | cell viability [29] [%] | cell viability [30] [%] | cell viability [31] [%] | cell viability [32] [%] | cell viability [33] [%]
1 | COC(=O)N1CCN(Cc2cccc(NC(=O)Nc3ccc(C)nc3)c2F)CC1 | 94.8 | 102 | 103 | 98.7 | 102 | 94.9 | 97.7 | 94.1 | 91 | 88.7 | 84.8 | 96.6 | 98.7 | 95.8 | 104 | 98.7 | 95.2 | 82.2 | 81.4 | 85.9 | 87.6 | 74.4 | 92.8 | 96 | 87.1 | 93.7 | 89.7 | 84.5 | 84.5 | 78.2 | 81.2 | 81.3 | 69
2 | CC[C@]1(O)C[C@H]2CN(CCC3=C([NH]C4=C3C=CC=C4)[C@@](C2)(C(=O)OC)C5=CC6=C(C=C5OC)N(C=O)[C@H]7[C@](O)([C@H](OC(C)=O)[C@]8(CC)\C=C/C[N@@]9CC[C@]67[C@H]89)C(=O)OC)C1 | 118 | 117 | 119 | 82.3 | 21.6 | 17.7 | 11 | 10.2 | 11.3 | 9.28 | 8.54 | 115 | 109 | 112 | 75.1 | 19.5 | 15.9 | 9.98 | 8.03 | 8.69 | 8.09 | 6.94 | 105 | 108 | 110 | 106 | 35.6 | 34.6 | 20.5 | 12 | 12.1 | 12.8 | 12.6
3 | Cc1ccc(-n2nc(C(C)(C)C)cc2NC(=O)Nc2ccc(OCCN3CCOCC3)c3ccccc23)cc1 | 106 | 112 | 113 | 115 | 111 | 117 | 119 | 126 | 114 | 109 | 102 | 106 | 107 | 103 | 97.7 | 113 | 112 | 113 | 117 | 112 | 88.7 | 85.2 | 105 | 100 | 112 | 121 | 109 | 116 | 125 | 126 | 116 | 97.5 | 104
